We go through one compound from patent US10131639B2, “Formulations of 2-(tert-butylamino)-4-((1R,3R,4R)-3-hydroxy-4methylcyclohexylamino)-pyrimidine-5-carboxamide” (Signal Pharmaceuticals, LLC, priority 2014, dated 2018).

Read-outs that look alike come from different tables or passages of the source.

Data set [1] in a line: Phase 1 study Part 1: plasma pharmacokinetics after multiple oral doses of Compound 1 as AIC (QD×6 days) in healthy subjects. The class given is in vivo, human. Particulars: for AUC / concentration at 24 h / Cmax: geometric mean (geometric CV%); for AUC: read-out: AUC0-τ (τ = 24 hours); for concentration at 24 h: read-out: Cmin (plasma concentration at 24 hours postdose); for Cmax: healthy subjects. Here is the method: Part 1 was an open label, multiple dose, three period, fixed sequence study to evaluate the effect of Compound 1 on JNK activity following UV irradiation.
On Day 1, after a minimum of an 8-hour fast, subjects received the first dose of Compound 1. All subjects received the following oral doses of Compound 1 in the fixed sequence below: • Treatment A: 60 mg Compound 1 as AIC, QD×6 days; • Treatment B: 160 mg Compound 1 as AIC, QD×6 days; and • Treatment C: 400 mg Compound 1 as AIC, QD×6 days.
All subjects received the following oral doses of Compound 1 as AIC: • Days 1 through 6: Treatment A: 60 mg Compound 1 AIC, QD×6 days; • Days 7 through 12: Treatment B: 160 mg Compound 1 AIC, QD×6 days; and • Days 13 through 18: Treatment C: 400 mg Compound 1 AIC, QD×6 days.
The treatments were administered in the morning following an overnight fast of at least 8 hours. All doses were administered with 240 mL of noncarbonated, room temperature water. Water was allowed as desired except for 1 hour before and 1 hour after drug administration. The first meal following the morning dose on the sixth day of each dosing period was 4 hours postdose. On all other dosing days, the next meal/snack was served after a minimum 2 hours after dosing.
Blood samples for Compound 1 plasma PK analysis were collected at the following time points on Days 6, 12, and 18: predose and 0.5, 2, 4, 6, 10, 12, and 24 hours postdose.
Concentrations of Compound 1 in plasma were measured using a validated liquid chromatography tandem mass spectrometry (LC-MS/MS) assay. In Part 2, concentrations of Compound 1 in whole blood were measured using a validated LC-MS/MS method.
Plasma and whole blood PK parameters were derived for Compound 1 by noncompartmental analysis. Actual sampling times were used in the calculation of PK parameters.
AUCτ: AUC from time zero to tau, where tau is the dosing interval.
Cmax: Maximum observed plasma concentration.
Cmin: Minimum observed plasma concentration.

For data set [2], the system named is UVB-induced phospho c-jun expression in skin. Description: Phospho c-Jun immunohistochemistry of UVB-irradiated skin biopsies: histopathology scores (scale 0-4). The class given is in vivo, human. From the text:
On baseline (Day −1) and on the sixth day of each dosing period (Days 6, 12, and 18), the skin test sites were delineated on the subject's upper buttock between the beltline and the natal cleft on the right side. The right side of the buttock was divided into four different test sites, one site for 2×MED irradiation at baseline and each of the three dosing periods. Each test site was a minimum of 3 cm×3 cm. Subjects received 2×MED UV irradiation at baseline (Day −1) at approximately the same time that irradiation was scheduled on Days 6, 12, and 18, which was 2 hours postdose. Eight hours after UV irradiation (±10 minutes), a skin punch biopsy was taken from the UV exposure site. The biopsies were processed into tissue slides by a third party and analyzed by immunohistochemistry (IHC). This third party was blinded to the treatment periods (baseline and doses).
Phospho-c-Jun expression in biopsies was analyzed by IHC. Phospho-c-Jun IHC data were subjectively scored on a scale of 0 to 4 based on the intensity and number of epidermal keratinocyte nuclei stained within the tissue section by trained individuals blinded to treatment. The IHC was also analyzed by automated measurement of integrated optical density.
Phospho c-Jun immunohistochemistry (IHC) images were scored by 2 independent pathologists from Quintiles using a scoring scale of 0-4. The percentage of epithelial c-Jun positive nuclei was scored as follows: […]

Data set [3] in a line: Earlier human experience with Compound 1 (doses up to 480 mg QD×14 days). It is filed as in vivo. The conditions noted are these: healthy subjects.
The nature of data set [4]: in vivo. The conditions noted are these: dog.
The mark [5] stands for this setting: human, plasma, Treatment A: 60 mg as AIC, oral QD×6 days, N=15.
Where [6] appears, read: human, plasma, Treatment B: 160 mg as AIC, oral QD×6 days, N=15.
Where [7] appears, read: human, plasma, Treatment C: 400 mg as AIC, oral QD×6 days, N=15.

Regarding `C[C@@H]1CC[C@@H](Nc2nc(NC(C)(C)C)ncc2C(N)=O)C[C@H]1O` [Compound 1, 2-(tert-butylamino)-4-((1R,3R,4R)-3-hydroxy-4-methylcyclohexylamino)-pyrimidine-5-carboxamide], in data set [1] (dose increased from 60 mg to 400 mg, multiple oral doses), the “increase of systemic exposure (AUC and Cmax) with dose” value was “more than dose-proportional”. The half-life – broadly, the time in which the quantity being followed falls by half – in data set [1] (human, plasma, oral, following multiple doses (60-400 mg QD), read-out: mean terminal half life) is 14 to 21 h. In addition, the AUC in data set [1] (setting [5]) is 2290 ng·h/mL; in data set [1] (setting [6]), 8560 ng·h/mL; in data set [1] (setting [7]), 31300 ng·h/mL. In addition, the concentration at 24 h in data set [1] (setting [5]) was found to be 22 ng/mL; in data set [1] (setting [6]) it was 65 ng/mL; in data set [1] (setting [7]) it was 212 ng/mL. Further, the Tmax (in general, the time from dosing to the highest level) is 1.95 h in data set [1] (human, plasma, Treatment A: 60 mg as AIC, oral QD×6 days, median (minimum, maximum), N=15, read-out: Tmax); 1.95 h in data set [1] (human, plasma, Treatment B: 160 mg as AIC, oral QD×6 days, median (minimum, maximum), N=15, read-out: Tmax); 1.97 h in data set [1] (human, plasma, Treatment C: 400 mg as AIC, oral QD×6 days, median (minimum, maximum), N=15, read-out: Tmax); 1 to 4 h in data set [1] (human, plasma, following single or multiple oral doses at the dose levels evaluated, postdose, read-out: median Tmax). For the same compound, the Cmax (usually the maximum level reached in the sampled fluid or tissue) in data set [1] (human, Treatment A: 60 mg as AIC, oral QD×6 days, plasma, N=15) is 419 ng/mL; in data set [1] (human, Treatment B: 160 mg as AIC, oral QD×6 days, plasma, N=15), 1460 ng/mL; in data set [1] (human, Treatment C: 400 mg as AIC, oral QD×6 days, plasma, N=15) it was 4460 ng/mL. For the same compound, the “percentage of individuals showing either no change or a decrease in histopathology score” value in data set [2] (60 mg dose group (8/15)) is 53%; in data set [2] (160 mg dose group (10/14)), 71%; in data set [2] (400 mg dose group (11/14)) it was 79%. Further, the “change from baseline in median histopathology scores” value in data set [2] (60, 160, 400 mg QD×6 days, scale 0-4, 2 independent pathologists) was “not significantly affected”. Besides, the tolerability result in data set [3] is reported as “well tolerated”. For the same compound, the AUC at 28 days in data set [4] amounted to 81200 ng·h/mL.
